From the supplement of paper PMC11061612

Assays:
Assay in all cases: combination Emax (second highest fraction inhibited in the dose matrix, 72 h); higher = more inhibition; extreme values may be limits of the assay
[1] = tested on: NCI-H1568 (Lung Adenocarcinoma)
Procedure, shortened: (§1)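 After 24 hours at 37°C and 5% CO2 in 1536-well plates, cells in DMEM/F12 or RPMI plus 10% FBS received two-drug dose matrices for 72 hours. Viability came from CellTiter-Glo 2.0 luminescence and was scaled as inhibition, anchored at 0 by vehicle wells and at 1 by blank wells. Combination Emax is taken as the second-highest inhibition in the matrix, and Bliss excess as the observed combination effect less EA + EB − EA·EB, with EA and EB the single-agent effects.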

[2] = tested on: MHH-CALL-2 (B-Lymphoblastic Leukemia)
Procedure, shortened: as §1

A673 (Ewing's Sarcoma) = tested on: A673 (Ewing's Sarcoma)
Procedure, shortened: as §1

[3] = tested on: ESS-1 (Other Solid Carcinomas)
Procedure, shortened: as §1

[4] = tested on: NCI-H209 (Small Cell Lung Carcinoma)
Procedure, shortened: as §1

CAL-72 (Osteosarcoma) = tested on: CAL-72 (Osteosarcoma)
Procedure, shortened: as §1

[5] = tested on: SW1573 (Lung Adenocarcinoma)
Procedure, shortened: as §1

[6] = tested on: FTC-133 (Thyroid Gland Carcinoma)
Procedure, shortened: as §1

[7] = tested on: YAPC (Pancreatic Carcinoma)
Procedure, shortened: as §1

[8] = tested on: OVCAR-5 (Ovarian Carcinoma)
Procedure, shortened: as §1

MPP-89 (Mesothelioma) = tested on: MPP-89 (Mesothelioma)
Procedure, shortened: as §1

[9] = tested on: NUGC-4 (Gastric Carcinoma)
Procedure, shortened: as §1

BE2-M17 (Neuroblastoma) = tested on: BE2-M17 (Neuroblastoma)
Procedure, shortened: as §1

[10] = tested on: KMRC-20 (Kidney Carcinoma)
Procedure, shortened: as §1

[11] = tested on: HuH-7 (Hepatocellular Carcinoma)
Procedure, shortened: as §1

[12] = tested on: HH (T-Cell Non-Hodgkin's Lymphoma)
Procedure, shortened: as §1

[13] = tested on: HuCCT1 (Biliary Tract Carcinoma)
Procedure, shortened: as §1

NCI-H2052 (Mesothelioma) = tested on: NCI-H2052 (Mesothelioma)
Procedure, shortened: as §1

BPH-1 (Non-Cancerous) = tested on: BPH-1 (Non-Cancerous)
Procedure, shortened: as §1

[14] = tested on: Detroit562 (Head and Neck Carcinoma)
Procedure, shortened: as §1

SMILES | combination Emax [1] | combination Emax [2] | combination Emax (A673 (Ewing's Sarcoma)) | combination Emax [3] | combination Emax [4] | combination Emax (CAL-72 (Osteosarcoma)) | combination Emax [5] | combination Emax [6] | combination Emax [7] | combination Emax [8] | combination Emax (MPP-89 (Mesothelioma)) | combination Emax [9] | combination Emax (BE2-M17 (Neuroblastoma)) | combination Emax [10] | combination Emax [11] | combination Emax [12] | combination Emax [13] | combination Emax (NCI-H2052 (Mesothelioma)) | combination Emax (BPH-1 (Non-Cancerous)) | combination Emax [14]
Cn1cnc2c(F)c(Nc3ccc(Br)cc3Cl)c(C(=O)NOCCO)cc21 [Selumetinib] + CCN(CCO)CCCOc1ccc2c(Nc3cc(CC(=O)Nc4cccc(F)c4)[nH]n3)ncnc2c1 [AZD2811] (first compound max 10 µM, 7x7, partner max 1 µM) | 0.207 | 0.888 | 0.658 | 0.462 | 0.431 | 0.181 | 0.251 | 0.415 | 0.212 | 0.507 | 0.204 | 0.472 | 0.644 | 0.29 | 0.293 | 0.173 | 0.525 | 0.232 | 0.624 | 0.743
Cn1cnc2c(F)c(Nc3ccc(Br)cc3Cl)c(C(=O)NOCCO)cc21 [Selumetinib] + C[C@@H]1COCCN1C2=NC(=NC(=C2)C3(CC3)[S@](=N)(=O)C)C4=C5C=CNC5=NC=C4 [AZD6738] (first compound max 10 µM, 7x7, partner max 10 µM) | 0.574 | 0.951 | 0.648 | 0.953 | 0.878 | 0.752 | 0.284 | 0.724 | 0.22 | 0.671 | 0.329 | 0.607 | 0.83 | 0.441 | 0.374 | 0.175 | 0.703 | 0.395 | 0.503 | 0.88
CC(=O)Nc1cccc(-n2c(=O)n(C3CC3)c(=O)c3c(Nc4ccc(I)cc4F)n(C)c(=O)c(C)c32)c1 [Trametinib] + Cc1nc(-c2cn3c(n2)-c2ccc(-c4cnn(C(C)(C)C(N)=O)c4)cc2OCC3)n(C(C)C)n1 [Taselisib] (first compound max 1 µM, 7x7, partner max 10 µM) | 0.763 | 0.662 | 0.722 | 0.88 | 0.218 | 0.85 | 0.407 | 0.338 | 0.733 | 0.905 | 0.796 | 0.554 | 0.994 | 0.593 | 0.977 | 0.524 | 0.803 | 0.535 | 0.94 | 0.954
CC1(C)CCC(CN2CCN(c3ccc(C(=O)NS(=O)(=O)c4ccc(NCC5CCOCC5)c([N+](=O)[O-])c4)c(Oc4cnc5[nH]ccc5c4)c3)CC2)=C(c2ccc(Cl)cc2)C1 [Venetoclax] + C1CN(CCC1(C(=O)N[C@@H](CCO)C2=CC=C(C=C2)Cl)N)C3=NC=NC4=C3C=CN4 [Capivasertib] (first compound max 1 µM, 7x7, partner max 3 µM) | 0.133 | 0.106 | 0.588 | 0.891 | 0.456 | 0.554 | 0.257 | 0.358 | 0.124 | 0.262 | 0.375 | 0.121 | 0.254 | 0.294 | 0.17 | 0.44 | 0.24 | 0.329 | 0.382 | 0.346
CC1(C)CCC(CN2CCN(c3ccc(C(=O)NS(=O)(=O)c4ccc(NCC5CCOCC5)c([N+](=O)[O-])c4)c(Oc4cnc5[nH]ccc5c4)c3)CC2)=C(c2ccc(Cl)cc2)C1 [Venetoclax] + C=CCn1c(=O)c2cnc(Nc3ccc(N4CCN(C)CC4)cc3)nc2n1-c1cccc(C(C)(C)O)n1 [AZD1775] (first compound max 1 µM, partner max 1 µM) | 0.479 | 0.681 | 0.862 | 1 | 0.978 | 0.924 | 0.407 | 0.86 | 0.307 | 0.75 | 0.841 | 0.312 | 0.825 | 0.627 | 0.386 | 0.766 | 0.69 | 0.249 | 0.377 | 0.545
CC1(C)CCC(CN2CCN(c3ccc(C(=O)NS(=O)(=O)c4ccc(NCC5CCOCC5)c([N+](=O)[O-])c4)c(Oc4cnc5[nH]ccc5c4)c3)CC2)=C(c2ccc(Cl)cc2)C1 [Venetoclax] + CCN(CCO)CCCOc1ccc2c(Nc3cc(CC(=O)Nc4cccc(F)c4)[nH]n3)ncnc2c1 [AZD2811] (first compound max 1 µM, 7x7, partner max 1 µM) | 0.209 | 0.292 | 0.861 | 0.977 | 0.974 | 0.673 | 0.286 | 0.495 | 0.157 | 0.315 | 0.284 | 0.166 | 0.515 | 0.2 | 0.194 | 0.18 | 0.217 | 0.181 | 0.416 | 0.52
CC1(C)CCC(CN2CCN(c3ccc(C(=O)NS(=O)(=O)c4ccc(NCC5CCOCC5)c([N+](=O)[O-])c4)c(Oc4cnc5[nH]ccc5c4)c3)CC2)=C(c2ccc(Cl)cc2)C1 [Venetoclax] + CN(C)CCCOc1ccc(-c2ccc3ncc4c(c3c2)n(C2CCOCC2)c(=O)n4C)cn1 [AZD0156] (first compound max 1 µM, 7x7, partner max 1 µM) | 0.319 | 0.153 | 0.835 | 0.93 | 0.528 | 0.687 | 0.201 | 0.167 | 0.175 | 0.405 | 0.408 | 0.166 | 0.238 | 0.201 | 0.26 | 0.18 | 0.231 | 0.235 | 0.254 | 0.212
CC1(C)CCC(CN2CCN(c3ccc(C(=O)NS(=O)(=O)c4ccc(NCC5CCOCC5)c([N+](=O)[O-])c4)c(Oc4cnc5[nH]ccc5c4)c3)CC2)=C(c2ccc(Cl)cc2)C1 [Venetoclax] + COc1cc(Nc2ncc3c(n2)-c2ccc(Cl)cc2C(c2c(F)cccc2OC)=NC3)ccc1C(=O)O [Alisertib] (first compound max 1 µM, 7x7, partner max 10 µM) | 0.259 | 0.733 | 0.835 | 0.957 | 0.891 | 0.591 | 0.168 | 0.416 | 0.142 | 0.335 | 0.566 | 0.166 | 0.901 | 0.654 | 0.791 | 0.222 | 0.365 | 0.425 | 0.745 | 0.754
CC1(C)CCC(CN2CCN(c3ccc(C(=O)NS(=O)(=O)c4ccc(NCC5CCOCC5)c([N+](=O)[O-])c4)c(Oc4cnc5[nH]ccc5c4)c3)CC2)=C(c2ccc(Cl)cc2)C1 [Venetoclax] + C[C@@H]1COCCN1C2=NC(=NC(=C2)C3(CC3)[S@](=N)(=O)C)C4=C5C=CNC5=NC=C4 [AZD6738] (first compound max 1 µM, 7x7, partner max 10 µM) | 0.553 | 0.863 | 0.89 | 0.979 | 0.981 | 0.902 | 0.351 | 0.779 | 0.317 | 0.768 | 0.686 | 0.534 | 0.939 | 0.665 | 0.424 | 0.352 | 0.664 | 0.431 | 0.332 | 0.829
CC1(C)CCC(CN2CCN(c3ccc(C(=O)NS(=O)(=O)c4ccc(NCC5CCOCC5)c([N+](=O)[O-])c4)c(Oc4cnc5[nH]ccc5c4)c3)CC2)=C(c2ccc(Cl)cc2)C1 [Venetoclax] + C[C@@H](Nc1cc(F)cc(F)c1)c1cc(C(=O)N(C)C)cc2c(=O)cc(N3CCOCC3)oc12 [AZD8186] (first compound max 1 µM, 7x7, partner max 3 µM) | 0.0798 | 0.294 | 0.558 | 0.814 | 0.515 | 0.406 | 0.136 | 0.182 | 0.0625 | 0.214 | 0.236 | 0.287 | 0.276 | 0.245 | 0.144 | 0.434 | 0.185 | 0.217 | 0.31 | 0.137
CC1(C)CCC(CN2CCN(c3ccc(C(=O)NS(=O)(=O)c4ccc(NCC5CCOCC5)c([N+](=O)[O-])c4)c(Oc4cnc5[nH]ccc5c4)c3)CC2)=C(c2ccc(Cl)cc2)C1 [Venetoclax] + Cc1cc2ncnn2cc1Nc1ncc2c(n1)n(C1CCOCC1)c(=O)n2C [AZD7648] (first compound max 1 µM, 7x7, partner max 10 µM) | 0.135 | 0.17 | 0.597 | 0.886 | 0.642 | 0.643 | 0.144 | 0.182 | 0.2 | 0.339 | 0.418 | 0.232 | 0.276 | 0.288 | 0.221 | 0.273 | 0.284 | 0.381 | 0.232 | 0.304
CC1(C)CCC(CN2CCN(c3ccc(C(=O)NS(=O)(=O)c4ccc(NCC5CCOCC5)c([N+](=O)[O-])c4)c(Oc4cnc5[nH]ccc5c4)c3)CC2)=C(c2ccc(Cl)cc2)C1 [Venetoclax] + Cn1cnc2c(F)c(Nc3ccc(Br)cc3Cl)c(C(=O)NOCCO)cc21 [Selumetinib] (first compound max 1 µM, 7x7, partner max 3 µM) | 0.0499 | 0.482 | 0.65 | 0.864 | 0.436 | 0.403 | 0.0752 | 0.133 | 0.145 | 0.572 | 0.159 | 0.499 | 0.635 | 0.217 | 0.122 | 0.132 | 0.38 | 0.213 | 0.572 | 0.321
